{
  "source": "patent US20230028918A1",
  "about": "“COMPOSITIONS COMPRISING PKC-BETA INHIBITORS AND PROCESSES FOR THE PREPARATION THEREOF” (priority 2019, published 2023)",
  "key": {"PKCβ signaling": {"tested_on": "PKCβ signaling", "test": "PKCβ signaling assay: SERBP1 phosphorylation after PMA + ionomycin in whole blood of CLL/SLL patients dosed with Compound A", "assay_type": "in vivo, human", "details": "for inhibition at 100 mg / inhibition at 200 mg / inhibition at 250 mg: Homo sapiens", "protocol": "A phosphor-flow assay was employed to measure the phosphorylation of SERBP1, a novel substrate for PKCP. Whole blood samples were taken at the appropriate time points from CLL patients receiving compound A as part of a phase 1 study, and were shipped overnight and processed for testing the next day. Whole blood was stimulated with PMA+ionomycin, cells were permeabilized, and the amount of SERBP1 phophorylation was measured. The reported data are the CD19+pSERBP1+ population, normalized to each patient's own unstimulated sample at the corresponding time point.\nTo monitor PKCβ mediated signaling, a biomarker marker assay was developed using Alexa-647 label anti-phospho_SERBP1 antibody.\nBriefly, whole blood specimens from each patient was drawn into sodium citrate collection tubes. Samples will be shipped overnight to the flow cytometry lab for processing and testing\nDuplicates will be prepared for each treatment condition per donor. The following conditions will be prepared for each donor, unstimulated and PMA and ionomycin stimulated samples. Whole blood 200 μL will be placed in appropriate size cryovial. The samples will be treated as described in Table 1 and incubated at 37° C., 5.0% CO2 for 25-30 minutes.\nFollowing stimulation 2 mL 1×BD FACSLyse will be added, then vortexed and incubated for 12-15 minutes in the dark at ART. Samples will be stored immediately at −80° C. until testing.\nSamples from each subject will be processed in batches with all timepoints and include a normal human control unstimulated and stimulated sample. All samples will be processed and collected in singlet.\nFrozen samples will be thawed by placing samples in a 37° C. water or bead bath. Sample will be transferred to tubes and centrifuged at 1700 rpm, for 5 minutes at ambient room temperature (ART) with Brake on. Samples will be decanted and washed twice with 1 mL Stain Buffer (FBS). Samples will be resuspended in 200 μL Stain Buffer (FBS) and […] appropriate volume of fluorochrome-conjugated monoclonal surface antibodies will be added (Table 2).\nSamples will be hand mixed and incubated for 15-20 minutes in the dark at ART. Samples will be washed twice with 1 mL Stain Buffer (FBS). After wash, 200 μL Fix/Perm buffer will be added to each sample, then vortexed and incubated for 30-35 minutes in the dark at 2-8° C. Samples will be washed twice with 1 ml 1× Permeabilization Buffer (Perm Buffer). 100 μL of 1× Perm Buffer and appropriate volume of pSERBP1 AF647 will be added (documented in the study paperwork) and incubated for 30-35 minutes in the dark at 2-8° C. Samples will be washed twice with 1 mL 1× Perm Buffer. Samples will be resuspended in 125 μL 1× Stain Buffer FBS for acquisition on the flow cytometer.\nFlow cytometric data acquisition will be performed using the BD FACSCantoII™ which evaluates two scatter parameters and up to eight color fluorescence channels. Data will be acquired using BD FACSDiva™ software (version 6.1.3 or higher). The samples will be acquired to distinguish the cells of interest from other cell types in the peripheral blood by electronic gating on the basis of CD45 versus side scatter. The instrument will be set to collect 50,000 CD45+ lymphocyte events. Dual combination cytograms and/or histograms will be generated to illustrate the LL (−/−), LR (+/−), UL (−/+), UR (+/+) and/or interval gate for the fraction of the cells. The Flow Cytograms will be printed and maintained with study binder.\nThe Median Fluorescence Intensity for the AF647 channel will be reported for each population (CD45, CD3, CD19 and CD20). Relative % data will also be reported for CD3+, CD3−CD19+, CD3−CD20+, CD3−CD19+HLADR+CD86+, and CD3−CD20+HLADR+CD86+. Data will be analyzed by Microsoft Excel to obtain descriptive statistics; i.e. Mean, SD, and CV %.\nThe flow cytometry data are analyzed to determine the amount of SERBP1 phosphorylation following PMA/ionomycin stimulation."}, "primary CLL cells [1]": {"tested_on": "primary CLL cells", "test": "CCL3 and CCL4 secretion by primary CLL cells (ELISA)", "assay_type": "cell-based", "details": "5 μM, presence or absence of anti-IgM ligation, 24 hrs"}, "primary CLL cells [2]": {"tested_on": "primary CLL cells", "test": "Immunoblot of BCR signaling in primary CLL cells", "assay_type": "cell-based", "details": "versus vehicle control"}, "physchem": {"test": "physchem", "details": "pH 7"}, "Clinical tolerability": {"test": "Clinical tolerability", "assay_type": "in vivo", "details": "human, plasma, oral; clinical trial, compound taken with food; read-out: Plasma Cmax that is well-tolerated"}, "[3]": {"test": "Compound A plasma concentration and food effect in patients", "assay_type": "in vivo, human", "details": "for Compound A Plasma Concentration: Day 8 pre-dose trough (Cmin); for concentration at 3 h post-dose on Day 8: human, plasma, Day 8, 3 h post-dose peak"}, "Human PKC delta": {"target": "Human PKC delta (Homo sapiens, UniProt Q05655)", "sequence (Q05655 whole entry)": "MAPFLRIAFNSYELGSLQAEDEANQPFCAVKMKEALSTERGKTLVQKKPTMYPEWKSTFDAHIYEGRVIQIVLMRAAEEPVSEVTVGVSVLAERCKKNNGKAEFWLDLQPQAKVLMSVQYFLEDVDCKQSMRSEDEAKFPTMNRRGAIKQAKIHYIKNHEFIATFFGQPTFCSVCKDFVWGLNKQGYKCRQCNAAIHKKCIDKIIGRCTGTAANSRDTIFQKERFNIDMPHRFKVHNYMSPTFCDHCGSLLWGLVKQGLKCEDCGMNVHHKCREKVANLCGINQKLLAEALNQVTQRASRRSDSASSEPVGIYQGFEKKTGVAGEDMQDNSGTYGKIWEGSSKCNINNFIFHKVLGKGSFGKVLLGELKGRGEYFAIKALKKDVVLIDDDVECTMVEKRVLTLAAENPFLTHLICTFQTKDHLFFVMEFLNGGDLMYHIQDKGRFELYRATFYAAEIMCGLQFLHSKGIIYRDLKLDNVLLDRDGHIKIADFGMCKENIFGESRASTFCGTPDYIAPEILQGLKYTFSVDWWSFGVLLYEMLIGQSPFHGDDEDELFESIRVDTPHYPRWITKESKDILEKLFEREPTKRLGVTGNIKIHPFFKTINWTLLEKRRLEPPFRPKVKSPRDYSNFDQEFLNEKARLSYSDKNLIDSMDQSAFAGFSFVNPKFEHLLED", "test": "PKC inhibition, in vitro enzyme assay", "assay_type": "biochemical", "source_text": "(§1) The methods for these determinations have been described (Grant, et al. 2010, Eur. J. Pharmacol. 627:16-25)."}, "Interleukin-8 release": {"tested_on": "Interleukin-8 release", "test": "Interleukin-8 release", "assay_type": "cell-based", "source_text": "as §1"}, "[4]": {"tested_on": "primary CLL cells with WT and C481S BTK", "test": "CD86 and HLA-DR expression on CpG-stimulated primary CLL cells with WT and C481S BTK (flow cytometry)", "assay_type": "cell-based", "details": "up to 10 μM, CpG stimulation, 48 hrs, baseline and post-relapse samples from ibrutinib treated patients", "quoted_text": "Cryopreserved baseline samples and post-relapse samples from ibrutinib treated patients (n=2) were thawed and treated with up to 10 μM compound A and stimulated with 3.2 M CpG. CD86 (FIG. 3A) and HLA-DR (FIG. 3B) expression was measured by flow cytometry at 48 hrs. Mean fluorescence intensity (MFI) is reported. Error bars represent standard deviation."}, "pSHP2 (PKCβ cell assay)": {"tested_on": "pSHP2 (PKCβ cell assay)", "test": "pSHP2 (PKCβ cell assay)", "assay_type": "cell-based", "source_text": "as §1"}},
  "note": "Where two headings read alike, the source gives them in different places.",
  "data": [
    {"smiles": "Cc1ncc(F)c(Nc2n[nH]c3c2CN(C(=O)N2C[C@@H](C)N(CC4CCOCC4)C[C@@H]2C)C3(C)C)n1", "note": "[Compound A, 5-{[(2S,5R)-2,5-dimethyl-4-(tetrahydro-2H-pyran-4-ylmethyl)piperazin-1-yl]carbonyl}-N-(5-fluoro-2-methylpyrimidin-4-yl)-6,6-dimethyl-1,4,5,6-tetrahydropyrrolo[3,4-c]pyrazol-3-amine]", "values": [
      {"measurement": "Mean Stimulation at Day 8 3 h Post-Dose Peak", "setting": "PKCβ signaling; 100 mg BID, N = 1", "result": 96, "unit": "%"},
      {"measurement": "Mean Stimulation at Day 8 Pre-Dose Trough (Cmin)", "setting": "PKCβ signaling; 100 mg BID, N = 1", "result": 109, "unit": "%"},
      {"measurement": "Mean Stimulation at Day 8 3 h Post-Dose Peak", "setting": "PKCβ signaling; 200 mg BID, N = 3", "result": 100, "unit": "%"},
      {"measurement": "Mean Stimulation at Day 8 Pre-Dose Trough (Cmin)", "setting": "PKCβ signaling; 200 mg BID, N = 3", "result": 121, "unit": "%"},
      {"measurement": "Mean Stimulation at Day 8 3 h Post-Dose Peak", "setting": "PKCβ signaling; 250 mg BID, N = 3", "result": 102, "unit": "%"},
      {"measurement": "Mean Stimulation at Day 8 Pre-Dose Trough (Cmin)", "setting": "PKCβ signaling; 250 mg BID, N = 3", "result": 104, "unit": "%"},
      {"measurement": "Phosphorylation of SERBP1 (CD19+pSERBP1+ population)", "setting": "PKCβ signaling; CLL patients in phase 1 study, PMA + ionomycin stimulated whole blood", "result": "inhibits phosphorylation of SERBP1 in vivo"},
      {"measurement": "inhibition at 100 mg", "setting": "PKCβ signaling; 192 h, 100 mg BID, Day 8 pre-dose, read-out: % Inhibition of Stimulation at Trough (Cmin)", "result": 51, "unit": "%"},
      {"measurement": "inhibition at 200 mg", "setting": "PKCβ signaling; 192 h, 200 mg BID, Day 8 pre-dose, read-out: % Inhibition of Stimulation at Trough (Cmin)", "result": 70, "unit": "%"},
      {"measurement": "inhibition at 250 mg", "setting": "PKCβ signaling; 192 h, 250 mg BID, Day 8 pre-dose, read-out: % Inhibition of Stimulation at Trough (Cmin)", "result": 97, "unit": "%"},
      {"measurement": "inhibition at 100 mg", "setting": "PKCβ signaling; 100 mg BID, Day 8, 3 h post-dose, read-out: % Inhibition of Stimulation at Peak", "result": 122, "unit": "%"},
      {"measurement": "inhibition at 200 mg", "setting": "PKCβ signaling; 200 mg BID, Day 8, 3 h post-dose, read-out: % Inhibition of Stimulation at Peak", "result": 102, "unit": "%"},
      {"measurement": "inhibition at 250 mg", "setting": "PKCβ signaling; 250 mg BID, Day 8, 3 h post-dose, read-out: % Inhibition of Stimulation at Peak", "result": 98, "unit": "%"},
      {"measurement": "Plasma concentration that completely suppresses PKCβ signaling", "setting": "PKCβ signaling; whole blood samples from patients with CLL or SLL", "result": "500 to 600", "unit": "ng/mL"},
      {"measurement": "CCL3 and CCL4 secretion", "setting": "primary CLL cells [1]", "result": "inhibition of pro-inflammatory cytokine expression"},
      {"measurement": "Phosphorylation of PKCβ and downstream targets (pPKCβ, pERK, pIκBα, pGSK3β)", "setting": "primary CLL cells [2]", "result": "decreased phosphorylation"},
      {"measurement": "solubility at 24 h", "setting": "physchem", "result": 1040, "unit": "µg/mL"},
      {"measurement": "Cmax", "setting": "Clinical tolerability", "result": "~2000", "unit": "ng/mL"},
      {"measurement": "Compound A Plasma Concentration", "setting": "[3]; 100 mg BID", "result": 186, "unit": "ng/mL"},
      {"measurement": "Compound A Plasma Concentration", "setting": "[3]; 200 mg BID", "result": 295, "unit": "ng/mL"},
      {"measurement": "Compound A Plasma Concentration", "setting": "[3]; 250 mg BID", "result": 542, "unit": "ng/mL"},
      {"measurement": "Effect of food on the PK profile", "setting": "[3]; clinical trial data", "result": "does not have a significant effect"},
      {"measurement": "concentration at 3 h post-dose on Day 8", "setting": "[3]; 100 mg BID", "result": 587, "unit": "ng/mL"},
      {"measurement": "concentration at 3 h post-dose on Day 8", "setting": "[3]; 200 mg BID", "result": 837, "unit": "ng/mL"},
      {"measurement": "concentration at 3 h post-dose on Day 8", "setting": "[3]; 250 mg BID", "result": 1310, "unit": "ng/mL"},
      {"measurement": "Effect of food on the pharmacokinetics", "setting": "[3]; single dose of the IR formulations", "result": "no significant effect"},
      {"measurement": "Inhibition of PKC delta", "setting": "Human PKC delta", "result": "does not significantly inhibit"},
      {"measurement": "IC50", "setting": "Interleukin-8 release", "result": 39, "unit": "nM"},
      {"measurement": "CD86 and HLA-DR expression (MFI)", "setting": "[4]", "result": "reduces activation"},
      {"measurement": "IC50", "setting": "pSHP2 (PKCβ cell assay)", "result": 9.8, "unit": "nM"}
    ]}
  ]
}
